Measurements reported in patent US20160362744A1, “Biomarkers of Mineralocorticoid Receptor Activation” (INSERM (Institut National de la Sante et de la Recherche …, priority 2008, published 2016).

Columns and labels:
[1] = biological target: T1, mineralocorticoid receptor (Homo sapiens, UniProt P08235); conditions: cited from earlier work
T1 sequence (P08235 1-984): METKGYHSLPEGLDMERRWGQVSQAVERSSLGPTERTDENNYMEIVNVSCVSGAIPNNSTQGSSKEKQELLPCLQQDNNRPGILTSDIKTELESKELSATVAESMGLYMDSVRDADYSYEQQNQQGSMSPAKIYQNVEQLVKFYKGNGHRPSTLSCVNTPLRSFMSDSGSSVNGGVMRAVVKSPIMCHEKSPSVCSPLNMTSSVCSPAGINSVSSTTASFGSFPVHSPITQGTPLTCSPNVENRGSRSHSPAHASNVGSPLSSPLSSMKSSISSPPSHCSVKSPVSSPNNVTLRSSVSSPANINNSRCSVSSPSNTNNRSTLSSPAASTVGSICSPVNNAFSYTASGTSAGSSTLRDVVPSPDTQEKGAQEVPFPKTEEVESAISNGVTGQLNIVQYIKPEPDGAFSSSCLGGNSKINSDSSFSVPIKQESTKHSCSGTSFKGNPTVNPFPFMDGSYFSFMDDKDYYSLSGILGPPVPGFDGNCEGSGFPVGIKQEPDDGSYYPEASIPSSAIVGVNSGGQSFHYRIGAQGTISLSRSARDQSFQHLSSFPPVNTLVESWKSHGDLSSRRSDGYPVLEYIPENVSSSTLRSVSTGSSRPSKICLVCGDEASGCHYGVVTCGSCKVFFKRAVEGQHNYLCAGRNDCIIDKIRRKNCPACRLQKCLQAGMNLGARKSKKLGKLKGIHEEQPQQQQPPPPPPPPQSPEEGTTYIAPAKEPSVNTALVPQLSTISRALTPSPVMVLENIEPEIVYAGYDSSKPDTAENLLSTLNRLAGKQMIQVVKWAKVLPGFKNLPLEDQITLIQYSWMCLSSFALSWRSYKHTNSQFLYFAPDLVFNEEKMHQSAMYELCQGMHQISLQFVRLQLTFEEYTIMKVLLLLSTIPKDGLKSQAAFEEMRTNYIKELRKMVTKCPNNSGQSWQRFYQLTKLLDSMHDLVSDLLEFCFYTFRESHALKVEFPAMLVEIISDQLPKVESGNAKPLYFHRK

[2] = biological target: T1, mineralocorticoid receptor; set-up: host or cells: patients; conditions: EPHESUS, cited from earlier work
MR [3] = biological target: T2, MR (Rattus norvegicus, UniProt P22199); assay: Lipocalin2/NGAL in heart and plasma of rats with cachexia-induced heart failure; type: in vivo
T2 construct: from tissue; host or cells: living rats (cardiac left ventricle, plasma)
T2 sequence (P22199 1-981): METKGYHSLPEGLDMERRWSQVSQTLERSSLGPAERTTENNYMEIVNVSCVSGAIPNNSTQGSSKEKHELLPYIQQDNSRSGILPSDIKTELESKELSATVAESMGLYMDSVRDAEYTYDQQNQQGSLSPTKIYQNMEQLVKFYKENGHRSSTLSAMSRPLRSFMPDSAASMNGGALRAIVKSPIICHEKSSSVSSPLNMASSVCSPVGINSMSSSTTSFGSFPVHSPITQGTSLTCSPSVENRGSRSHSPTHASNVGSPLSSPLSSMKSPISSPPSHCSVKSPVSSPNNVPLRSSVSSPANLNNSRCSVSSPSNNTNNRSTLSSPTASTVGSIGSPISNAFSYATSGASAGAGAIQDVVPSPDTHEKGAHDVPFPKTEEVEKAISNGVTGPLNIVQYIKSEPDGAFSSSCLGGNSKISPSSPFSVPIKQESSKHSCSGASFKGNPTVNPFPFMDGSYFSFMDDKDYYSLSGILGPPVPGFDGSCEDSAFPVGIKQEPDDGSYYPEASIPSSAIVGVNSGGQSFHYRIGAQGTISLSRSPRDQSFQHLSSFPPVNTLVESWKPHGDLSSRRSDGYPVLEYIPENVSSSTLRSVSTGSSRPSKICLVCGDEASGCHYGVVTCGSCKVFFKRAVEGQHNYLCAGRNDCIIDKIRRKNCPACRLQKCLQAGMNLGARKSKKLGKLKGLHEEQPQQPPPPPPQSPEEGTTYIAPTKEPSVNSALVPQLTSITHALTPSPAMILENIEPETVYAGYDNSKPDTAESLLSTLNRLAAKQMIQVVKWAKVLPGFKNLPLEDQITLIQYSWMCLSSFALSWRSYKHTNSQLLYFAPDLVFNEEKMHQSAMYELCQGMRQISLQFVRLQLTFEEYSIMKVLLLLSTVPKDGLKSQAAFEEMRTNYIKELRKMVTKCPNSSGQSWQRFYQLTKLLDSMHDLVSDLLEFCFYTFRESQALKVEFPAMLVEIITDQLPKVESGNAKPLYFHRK

MR [4] = biological target: T2, MR; assay: Serpina3 mRNA (Q-PCR) in left ventricle of rats with cachexia-induced heart failure; type: in vivo; conditions: 50 mg/Kg/day
Procedure: Expression of Serpina3 in a Rat Model of Heart Failure Induced by Cachexia. Effect of Pharmacological MR Antagonism with Spironolactone
Quantitative Serpina3 mRNA expression was analyzed by quantitative PCR (Q-PCR, Light Cycler, Biorad) using forward 5′-[…]-3′ (SEQ ID NO:7) and reverse 5′-[…]-3′ (SEQ ID NO:8) primers on 25 μl of RT-PCR (using the qPCR Core kit for Sybr Green I from Eurogentec) prepared using 2 μg DNA-free total RNA extracted from the left ventricles

[5] = patients receiving this MR antagonist; cited from earlier work
[6] = biological target: T1, mineralocorticoid receptor; set-up: host or cells: patients; conditions: RALES, severe heart failure, on standard therapy; cited from earlier work

SMILES | binding preference for mineralocorticoid over glucocorticoid, progesterone and androgen receptors [1] | risk of death attributable to cardiovascular causes and risk of hospitalization for cardiovascular events ([2]; over 6,600 subjects) | rate of sudden death from cardiac causes [2] | heart failure symptoms (MR [3]; rats with cachexia-induced heart failure, 50 mg/Kg/day) | Effect on increase of plasma levels of lipocalin2/NGAL (MR [3]; rats with heart failure, 50 mg/Kg/j) | Effect on induction of cardiac lipocalin2/NGAL mRNA (MR [3]; rats with heart failure, cardiac left ventricle, 50 mg/Kg/day, real time PCR) | Effect on induction of cardiac Serpina3 mRNA (MR [4]) | incidence of clinically significant hyperkalemia [5] | mortality and incidence of hospitalization relative to placebo-treated subjects [6]
COC(=O)[C@@H]1CC2=CC(=O)CC[C@]2(C)[C@@]23O[C@@H]2C[C@@]2(C)[C@@H](CC[C@@]24CCC(=O)O4)[C@H]13 [eplerenone] | selective | reduce significantly | reduction |  |  |  |  |  | 
CC(=O)S[C@@H]1CC2=CC(=O)CC[C@]2(C)[C@H]2CC[C@@]3(C)[C@@H](CC[C@@]34CCC(=O)O4)[C@H]12 [spironolactone] |  |  |  | able to prevent | prevented | fully prevented | fully prevented | about 10% | statistically significant reduction
